Experimental data reported in US6855730B2, “3-methylidenyl-2-indolinone modulators of protein kinase” (Sugen, Inc., priority 1998, dated 2005).

Target: EGFR (Homo sapiens, UniProt P00533)
Experiment: EGFR assay (cellular ELISA, NIH 3T3/C7 cells)
Type: cell-based
Parameters: expressed in transfected cells; host or cells: NIH 3T3/C7
Details: read-out: cell EGF IC50
Experimental: EGF Receptor kinase activity in cells genetically engineered to express human EGF-R can be measured as described below:
Materials and Reagents. • a. […] 05-101 (UBI) (a monoclonal antibody recognizing an EGFR extracellular domain). • c. Anti-phosphotyosine antibody (anti-Ptyr) (polyclonal). • d. Detection antibody: Goat anti-rabbit IgG horse radish peroxidase conjugate, TAGO, Inc. Burlingame, Calif. • e. TBST buffer:
• Keep solution in dark at 4° C. until used. • h. Stock reagents of:
Pre-coat ELISA Plate • 1. […] Coated plates are good for up to 10 days when stored at 4° C. • 2. On day-of use, remove coating buffer and replace with blocking buffer (5% Carnation Instant NonFat Dry Milk in PBS). Incubate the plate, shaking, at room temperature (about 23° C. to 25° C.) for 30 minutes. Just prior to use, remove blocking buffer and wash plate 4 times with TBST buffer.
Seeding Cells • 1. […] Choose dishes having 80-90% confluence for the experiment. Trypsinize cells and stop reaction by adding 10% CS DMEM medium. Suspend cells in DMEM medium (10% CS DMEM medium) and centrifuge once at 1000 rpm at room temperature for 5 minutes. • 3. Resuspend cells in seeding medium (DMEM, 0.5% bovine serum), and count the cells using trypan blue. Viability above 90% is acceptable. Seed cells in DMEM medium (0.5% bovine serum) at a density of 10,000 cells per well, 100 μl per well, in a 96 well microtiter plate. Incubate seeded cells in 5% CO2 at 37° C. for about 40 hours.
Assay Procedures. • 1. Check seeded cells for contamination using an inverted microscope. Dilute test compounds stock (10 mg/ml in DMSO) 1:10 in DMEM medium, then transfer 5 μl to a test well for a test compounds drug dilution of 1:200 and a final DMSO concentration of 1%. Control wells receive DMSO alone. Incubate in 5% CO2 at 37° C. for one hour. • 2. Prepare EGF ligand: dilute stock EGF in DMEM so that upon transfer of 10 μl dilute EGF (1:12 dilution), 25 nM final concentration is attained. • 3. Prepare fresh 10 ml HNTG* sufficient for 100 μl per well wherein HNTG* comprises: HNTG stock (2.0 ml), milli-Q H2O (7.3 ml), EDTA, 100 mM, pH 7.0 (0.5 ml), Na3VO4 0.5 M (0.1 ml) and Na4(P2O7), 0.2 M (0.1 ml). • 4. Place on ice. • 5. After two hours incubation with drug, add prepared EGF ligand to cells, 10 μl per well, to yield a final concentration of 25 nM. Control wells receive DMEM alone. Incubate, shaking, at room temperature, for 5 minutes. • 6. Remove test compound, EGF, and DMEM. Wash cells twice with PBS. Transfer HNTG* to cells, 100 μl per well. Place on ice for 5 minutes. Meanwhile, remove blocking buffer from other ELISA plate and wash with TBST as described above. • 7. With a pipette tip securely fitted to a micropipettor, scrape cells from plate and homogenize cell material by repeatedly aspirating and dispensing the HNTG* lysis buffer. Transfer lysate to a coated, blocked, and washed ELISA plate. Incubate shaking at room temperature for one hour. • 8. Remove lysate and wash 4 times with TBST. Transfer freshly diluted anti-Ptyr antibody to ELISA plate at 100 μl per well. Incubate shaking at room temperature for 30 minutes in the presence of the anti-Ptyr antiserum (1:3000 dilution in TBST). • 9. Remove the anti-Ptyr antibody and wash 4 times with TBST. Transfer the freshly diluted TAGO 30 anti-rabbit IgG antibody to the ELISA plate at 100 μl per well. Incubate shaking at room temperature for 30 minutes (anti-rabbit IgG antibody: 1:3000 dilution in TBST). • 10. Remove detection antibody and wash 4 times with TBST. Transfer freshly prepared ABTS/H2O2 solution to ELISA plate, 100 μl per well. Incubate at room temperature for 20 minutes. ABTS/H2O2 solution: 1.2 μl 30% H2O2 in 10 ml ABTS stock. • 11. Stop reaction by adding 50 μl 5N H2SO4 (optional), and determine O.D. at 410 nm. • 12. The maximal phosphotyrosine signal is determined by subtracting the value of the negative controls from the positive controls. […]

EGFR, sequence (P00533 25-1210): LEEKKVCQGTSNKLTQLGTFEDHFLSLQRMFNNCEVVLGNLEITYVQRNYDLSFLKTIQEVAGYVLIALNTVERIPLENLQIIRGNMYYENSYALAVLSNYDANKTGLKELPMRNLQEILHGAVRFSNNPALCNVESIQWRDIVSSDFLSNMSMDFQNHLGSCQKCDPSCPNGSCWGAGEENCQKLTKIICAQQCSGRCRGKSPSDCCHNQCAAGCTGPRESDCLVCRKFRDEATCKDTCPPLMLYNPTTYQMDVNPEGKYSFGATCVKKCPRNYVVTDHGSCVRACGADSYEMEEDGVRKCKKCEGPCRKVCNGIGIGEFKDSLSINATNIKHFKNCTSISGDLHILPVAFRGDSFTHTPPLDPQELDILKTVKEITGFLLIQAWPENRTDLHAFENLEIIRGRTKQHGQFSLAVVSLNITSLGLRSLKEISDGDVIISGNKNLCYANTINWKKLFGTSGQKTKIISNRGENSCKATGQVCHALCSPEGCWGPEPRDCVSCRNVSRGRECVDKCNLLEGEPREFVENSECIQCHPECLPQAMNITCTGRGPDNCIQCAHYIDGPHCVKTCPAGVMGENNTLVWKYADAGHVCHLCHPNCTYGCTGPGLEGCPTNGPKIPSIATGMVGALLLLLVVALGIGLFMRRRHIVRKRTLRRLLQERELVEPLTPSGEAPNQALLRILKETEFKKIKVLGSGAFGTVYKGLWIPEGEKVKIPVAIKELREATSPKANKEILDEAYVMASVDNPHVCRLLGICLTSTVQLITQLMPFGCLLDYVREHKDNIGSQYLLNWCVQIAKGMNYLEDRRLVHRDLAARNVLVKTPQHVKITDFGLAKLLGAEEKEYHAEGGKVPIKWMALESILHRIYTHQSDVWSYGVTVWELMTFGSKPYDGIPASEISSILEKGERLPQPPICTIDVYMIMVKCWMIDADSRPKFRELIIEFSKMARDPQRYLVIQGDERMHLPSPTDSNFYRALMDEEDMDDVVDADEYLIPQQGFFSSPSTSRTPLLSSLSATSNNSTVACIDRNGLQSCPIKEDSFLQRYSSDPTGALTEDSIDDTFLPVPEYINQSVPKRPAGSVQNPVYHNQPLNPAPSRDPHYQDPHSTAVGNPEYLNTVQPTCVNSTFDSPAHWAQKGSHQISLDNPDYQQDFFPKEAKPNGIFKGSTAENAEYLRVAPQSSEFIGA

SMILES | IC50 [µM]
CC1(C)CCc2cc(/C=C3/C(=O)Nc4ccc(F)cc43)ccc2O1 [Example 23, 3-(2,2-Dimethylchroman-6-ylmethylene)-5-fluoro-1,3-dihydroindol-2-one] | 37.7
CCOC(=O)c1c(C)[nH]c(/C=C2\C(=O)Nc3cc(-c4ccccc4OC)ccc32)c1CCC(=O)O [Example 110, 4-(2-Carboxyethyl)-5-[6-(2-methoxyphenyl)-2-oxo-1,2-dihydro-indol-3-ylidenemethyl]-2-methyl-1H-pyrrol-3-yl-carboxylic acid ethyl ester] | > 100
O=C1Nc2ccc(Br)cc2/C1=C/c1cc2ccccc2[nH]1 [Example 165, 5-Bromo-3-(1H-indol-2-ylmethylene)-1,3-dihydro-indol-2-one] | > 100
CC(C)c1cc(/C=C2/C(=O)Nc3ccc(Br)cc32)cc(C(C)C)c1OCCN1CCOCC1 [Example 57, 5-Bromo-3-[3,5-diisopropyl-4-(2-morpholin-4-ylethoxy)benzylidene]-1,3-dihydroindol-2-one] | > 100
COc1ccc(/C=C2/C(=O)Nc3ccccc32)cc1-c1ccsc1 [Example 35, 3-(4-Methoxy-3-thiophen-3-ylbenzylidene)-1,3-dihydroindol-2-one] | > 100
CCOC(=O)c1c(C)[nH]c(/C=C2\C(=O)Nc3cc(-c4ccc(F)cc4)ccc32)c1CCC(=O)O [Example 108, 4-(2-Carboxyethyl)-5-[6-(4-fluorophenyl)-2-oxo-1,2-dihydro-indol-3-ylidenemethyl]-2-methyl-1H-pyrrole-3-carboxylic acid ethyl ester] | > 100
COc1ccc(/C=C2/C(=O)Nc3ncccc32)cc1C1CCCCC1 [Example 72, 3-(3-Cyclohexyl-4-methoxybenzylidene)-1,3-dihydropyrrolo[2,3-b]pyridin-2-one] | > 100

Now from value to molecule:

IC50 [µM] | SMILES
78.1 | COc1c(C(C)C)cc(/C=C2/C(=O)Nc3ccc(N)cc32)cc1C(C)C [Example 20, 5-Amino-3-(3,5-diisopropyl-4-methoxy-benzylidene)-1,3-dihydroindol-2-one]
34.8 | COc1c(C(C)C)cc(/C=C2/C(=O)Nc3ccc(C)cc32)cc1C(C)C [Example 19, 3-(3,5-Diisopropyl-4-methoxybenzylidene)-5-methyl-1,3-dihydroindol-2-one]
> 100 | COc1cc(C=C2C(=O)Nc3ccccc32)c(-c2ccccc2OC)cc1OC [Example 49, 3-(4,5,2′-Trimethoxybiphenyl-2-ylmethylene)-1,3-dihydroindol-2-one]
> 100 | COc1ccc(/C=C2/C(=O)Nc3ncccc32)cc1C(C)C [Example 70, 3-(3-Isopropyl-4-methoxybenzylidene)-1,3-dihydropyrrolo[2,3-b]pyridine-2-one]
79.3 | COc1c(C(C)C)cc(/C=C2/C(=O)Nc3ccc(Br)cc32)cc1C(C)C [Example 54, 5-Bromo-3-(3,5-diisopropyl-4-methoxybenzylidene)-1,3-dihydroindol-2-one]
30.6 | COc1cc(C)c(C=C2C(=O)Nc3cc(NC(C)=O)ccc32)cc1C(C)C [Example 27, N-[3-(5-Isopropyl-4-methoxy-2-methyl-benzylidene)-2-oxo-2,3-dihydro-1H-indol-6-yl]-acetamide]
79 | CC(=O)Nc1ccc2c(c1)NC(=O)/C2=C/c1ccc(OCCN2CCOCC2)c(-c2cccs2)c1 [Example 40, N-{3-[4-(2-Morpholin-4-ylethoxy)-3-thiophen-2-ylbenzylidene]-2-oxo-2,3-dihydro-1H-indol-6-yl}-acetamide]
